Read-outs that look alike come from different tables or passages of the source.
What was measured:
rats [1] = experiment: Locomotor activity, rate of beam crossings in photocell apparatus; assay type: in vivo, rat; conditions: intravenous; for effect on locomotor activity: early after administration, FIG. 3 and 4
Protocol: Rats were injected with varied doses of either some of the inventive compounds or with WIN 55212-2, a known CB1/CB2 receptor agonist. The injected compounds were solubilized in DMSO:40% cyclodextrin (1:10) and intravenously administered.
Locomotor activity was assessed by measuring the rate of beam crossings by rats in a photocell apparatus according to the procedure of M. Cosenza et al, Locomotor Activity and Occupancy of Brain Cannabinoid CB1 Receptors by the Antagonist/Inverse Agonist AM281, Synapse, 38, 477-482 (2000).

CB2 receptor = target: T1, CB2 receptor (Mus musculus, UniProt P47936); experiment: CB2 receptor binding assay, [3H]CP-55,940 displacement, mouse spleen membranes
T1 construct: membranes were prepared from frozen mouse spleen; from tissue; host or cells: frozen mouse spleen membranes
T1 sequence (P47936 whole entry): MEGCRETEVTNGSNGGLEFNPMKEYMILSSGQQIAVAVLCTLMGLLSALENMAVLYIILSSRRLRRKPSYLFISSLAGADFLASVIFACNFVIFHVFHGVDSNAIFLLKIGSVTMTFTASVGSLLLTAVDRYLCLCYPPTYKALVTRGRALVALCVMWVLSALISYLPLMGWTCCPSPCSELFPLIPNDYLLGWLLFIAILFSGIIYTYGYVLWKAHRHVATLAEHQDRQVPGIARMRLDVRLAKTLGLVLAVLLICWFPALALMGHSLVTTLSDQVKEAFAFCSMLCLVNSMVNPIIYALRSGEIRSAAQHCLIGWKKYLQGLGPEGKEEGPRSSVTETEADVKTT
Protocol: (§1) The treated membranes were subsequently used in the binding assay described below. Approximately 30 μg of membranes were incubated in silanized 96-well microtiter plate with TME containing 0.1% essentially fatty acid-free bovine serum albumin (BSA), 0.8 nM [^3H] CP-55,940, and various concentrations of test materials in a final volume of […]. The assays were incubated for 1 hour at 30° C. and then immediately filtered using Packard Filtermate 196 harvester and Whatman GF/C filterplates and washed with wash buffer (TME) containing 0.5% BSA. Radioactivity was detected using MicroScint 20 scintillation cocktail added directly to the dried filterplates, and the filterplates were counted using a Packard Instruments Top-Count. Nonspecific binding was assessed using 100 nM CP-55,940. Data collected from three independent experiments performed with duplicate determinations was normalized between 100% and 0% specific binding for [^3H] CP-55,940, determined using buffer and 100 nM CP-55,940. The normalized data was analyzed using a 4-parameter nonlinear logistic equation to yield IC50 values. Data from at least two indeperident experiments performed in duplicate was used to calculate IC50 values which were converted to Ki values using the assumptions of Cheng et al, Relationship Between the Inhibition Constant (Ki) and the concentratiori of Inhibitor which causes 50% Inhibition (IC50) of an Enzymatic Reaction, Biochem. Pharmacol., 22, 3099-3102, (1973), which is incorporated by reference herein.
For the CB2 receptor binding studies, membranes were prepared from frozen mouse spleen essentially according to the procedure of P. R. Dodd et al, A Rapid Method for Preparing Synaptosomes: Comparison with Alternative Procedures, Brain Res., 226, 107-118 (1981) which is incorporated by reference herein. Silanized centrifuge tubes were used throughout to minimize receptor loss due to adsorption. The CB2 binding assay was conducted in the same manner as for the CB1 binding assay. The binding affinities (Ki) were also expressed in nanomoles (nM).

CB1 receptor = target: T2, CB1 receptor (Rattus norvegicus, UniProt P20272); experiment: CB1 receptor binding assay, [3H]CP-55,940 displacement, rat forebrain membranes
T2 construct: membranes were prepared from rat forebrain membranes; from tissue; host or cells: rat forebrain membranes
T2 sequence (P20272 whole entry): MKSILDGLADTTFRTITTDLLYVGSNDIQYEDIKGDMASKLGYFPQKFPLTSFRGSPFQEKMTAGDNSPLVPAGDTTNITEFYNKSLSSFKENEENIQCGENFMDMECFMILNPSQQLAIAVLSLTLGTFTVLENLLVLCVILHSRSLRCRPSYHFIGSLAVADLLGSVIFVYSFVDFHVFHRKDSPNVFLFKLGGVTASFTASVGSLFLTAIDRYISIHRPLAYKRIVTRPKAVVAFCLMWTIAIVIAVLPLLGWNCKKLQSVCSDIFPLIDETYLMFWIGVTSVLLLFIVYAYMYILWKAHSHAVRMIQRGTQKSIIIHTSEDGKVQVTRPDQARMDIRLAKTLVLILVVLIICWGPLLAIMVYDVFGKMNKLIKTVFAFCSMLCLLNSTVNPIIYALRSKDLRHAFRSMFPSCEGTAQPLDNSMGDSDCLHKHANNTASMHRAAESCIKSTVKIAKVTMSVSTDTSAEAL
Protocol: The inventive analogs were tested for CB2 receptor binding affinity and for CB1 receptor affinity (to determine selectivity for the CB2 receptor). As used herein, “binding affinity” is represented by the IC50 value which is the concentration of an analog required to occupy the 50% of the total number (Bmax) of the receptors. The lower the IC50 value the higher the binding affinity. […] For the CB1 receptor binding studies, membranes were prepared from rat forebrain membranes according to the procedure of P. R. Dodd et al, A Rapid Method for Preparing Synaptosomes: Comparison with Alternative Procedures, Brain Res., 107-118 (1981). The binding of the novel analogues to the CB1 cannabinold receptor was assessed as described in W. A. Devane et al, Determination and Characterization of a Cannabinoid Receptor in a Rat Brain, Mol. Pharmacol., 34, 605-613 (1988) and A. Charalambous et al, 5′-azido Δ^8− THC: A Novel Photoaffinity Label for the Cannabinoid Receptor, J. Med. Chem., 35, 3076-3079 (1992) with the following changes. The above articles are incorporated by reference herein.
Membranes, previously frozen at −80° C., were thawed on ice. To the stirred suspension was added three volumes of TME (25 mM Tris-HCl buffer, 5 mM MgCl2 and 1 mM EDTA) at a pH 7.4. The suspension was incubated at 4° C. for 30 min. At the end of the incubation, the membranes were pelleted and washed three times with TME.
as §1

rats [2] = experiment: Peripheral antinociception, paw withdrawal latency to thermal stimulus; assay type: in vivo, rat; conditions: ipsilateral i.paw injection, measured 25 min after injection, FIG. 1 and 2
Protocol: Using rats as test subjects, varied doses of some of the inventive compounds were injected subcutaneously in the dorsal surface of the paw (i.paw, 50 μl). Measurements were taken 25 min after i.paw injection. Assessment of antinociceptive action was made by evaluating the response latency to removal of the paw from a focused source of thermal stimulation, as described by T. P. Malan Jr., CB2 Cannabinoid Receptor-mediated Peridpheral Antinociception, Pain, 93, 239-245 (2001), the content of which is incorporated by reference herein. Rats were allowed to acclimate within Plexiglas enclosures on a clear glass plate maintained at 30° C. A radiant heat source (a high-intensity projector lamp) was focused onto the plantar surface of the hindpaw. Activation of the heat source activated a timer, which stopped when withdrawal of the paw was detected with a photodetector. A maximal cut-off of 40 seconds (s) was utilized to prevent tissue damage.
Antinociception is expressed as the percent of the maximum possible effect (% MPE), using the formula: % MPE=(WL-CL)/(CO-CL), where WL is the withdrawal latency obtained experimentally, CL is the control (baseline) value before drug administration, and CO is the cut-off value (40 s). Dose-response curves were generated. Significance was defined as P<0.05.

[3] = rat forebrain membranes, 0.8 nM [3H]CP-55,940, read-out: Ki (nM) CB1

Compound	cannabinoid-like behaviour in the locomotor assay (rats [1])	effect on locomotor activity (rats [1])	Ki (CB2 receptor) [nM]	Ki (CB1 receptor) [nM]	antinociception to a thermal stimulus applied to the hindpaw (rats [2])	Ki (CB1 receptor; [3]) [nM]
Cc1c(C(=O)c2cccc3ccccc23)c2cccc3c2n1[C@H](CN1CCOCC1)CO3 [WIN 55212-2, reference compound]	produced the typical cannabinoid-like catalepsy and inhibition of locomotion	significantly reduced locomotor activity				
O=C(NC12CC3CC(CC(C3)C1)C2)c1nn(CCN2CCOCC2)c2ccccc12 [compound 1]			0.147	6.84		
CN1CCCCC1Cn1nc(C(=O)NC23CC4CC(CC(C4)C2)C3)c2ccccc21 (stereo not drawn) [compound 2]			8.74	47.5		
N#CCCCCn1nc(C(=O)NC23CC4CC(CC(C4)C2)C3)c2ccccc21 [compound 3]	produced the typical cannabinoid-like catalepsy and inhibition of locomotion	significantly reduced locomotor activity	0.309	2.28	produced dose-dependent antinociception	
O=C(NC12CC3CC(CC(C3)C1)C2)c1nn(CCCCCl)c2ccccc12 [compound 4]			1.34	1.65		
O=C(NC12CC3CC(CC(C3)C1)C2)c1nn(CCCCI)c2ccccc12 [compound 5]			0.164	0.596		
CN(C)CCCn1nc(C(=O)NC23CC4CC(CC(C4)C2)C3)c2ccccc21 [compound 6]			20.9			443
O=C(Nc1cccc2ccccc12)c1nn(CCCCCl)c2ccccc12 [compound 7]			0.135	0.268		
O=C(Nc1cccc2ccccc12)c1nn(CCCCI)c2ccccc12 [compound 8]			27	13.7		
CN(C)CCCn1nc(C(=O)Nc2cccc3ccccc23)c2ccccc21 [compound 9]			235			451
CN1CCCCC1Cn1nc(C(=O)Nc2cccc3ccccc23)c2ccccc21 (stereo not drawn) [compound 10]			8.04	15		
O=C(NN1CCCCC1)c1nn(-c2ccccc2)c2cc(Br)ccc12 [compound 11]			84.7			1850
